PubChem BioAssay (NCI)
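Test compounds were applied to cells in 96-well plates for 48 hours at 5 doses. GI50 is the concentration that inhibits growth by half. TGI is the concentration that stops growth completely.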

How the values were obtained:
Assay in all cases: NCI tumour cell line growth inhibition, 48 h
[1] = tested on: SW-620 colon
[2] = tested on: NCI-H522 lung
[3] = tested on: NCI-H23 lung
[4] = tested on: MALME-3M melanoma
[5] = tested on: SN12C renal
[6] = tested on: SK-OV-3 ovarian
[7] = tested on: SF-295 CNS
[8] = tested on: HCC-2998 colon
[9] = tested on: HOP-92 NSCLC
[10] = tested on: HOP-62 NSCLC

Row | SMILES | GI50 [1] [µM] | TGI [1] [µM] | GI50 [2] [µM] | TGI [2] [µM] | GI50 [3] [µM] | TGI [3] [µM] | GI50 [4] [µM] | TGI [4] [µM] | GI50 [5] [µM] | TGI [5] [µM] | GI50 [6] [µM] | TGI [6] [µM] | GI50 [7] [µM] | TGI [7] [µM] | GI50 [8] [µM] | TGI [8] [µM] | GI50 [9] [µM] | TGI [9] [µM] | GI50 [10] [µM] | TGI [10] [µM]
1 | COc1ccc(/C(C)=C(\c2ccc(Cl)cc2)c2ccc(OCCN3CCCCC3)cc2)cc1F | 2.34 | 5.35 | 3.54 | 7.94 | 2.78 | 7.09 | 2.18 | 4.46 | 2.75 | 7.24 | 5.92 | > 16.7 | 2.75 | 5.52 | 3.21 | 7.14 | 2.5 | 6.08 | 3.34 | 6.58
2 | Cc1cn2cc(-c3ccncc3)nc2s1 | – | > 100 | – | > 100 | – | > 100 | – | > 100 | – | > 100 | – | > 100 | – | > 100 | – | > 100 | – | > 100 | – | > 100
3 | COc1ccc(/C=C2\CN(Cc3cn(CCCNc4ccnc5cc(Cl)ccc45)nn3)C/C(=C\c3ccc(OC)cc3)C2=O)cc1 | 1.69 | 3.57 | 10.3 | 21.9 | 10.8 | 34.5 | 2.09 | 5.37 | 13.1 | 33.8 | 14.1 | 30.6 | 14.2 | 31.4 | 13.8 | 27.9 | 0.962 | 15.9 | 19.4 | 35.5
4 | O=C1C2=C(Nc3cc([N+](=O)[O-])ccc3N2)OC1c1c[nH]c2ccc(COc3ccccc3)cc12 (stereo unspecified) | – | > 100 | – | > 100 | – | > 100 | – | > 100 | – | > 100 | – | > 100 | – | > 100 | – | > 100 | – | > 100 | – | > 100
5 | O=C(Nc1cccc(Cl)c1)c1cc2cc(N=Nc3ccc(Br)cc3)ccc2oc1=O | – | > 100 | – | > 100 | – | 64.3 | – | > 100 | – | > 100 | – | > 100 | – | > 100 | – | 88.7 | – | > 100 | – | > 100
6 | COc1cc(C2C3=C(COC3=O)N(CCO)c3cc4c(cc32)CCC4)cc(OC)c1OC (stereo unspecified) | 0.126 | > 32.5 | 0.041 | 0.212 | 0.0903 | – | 0.598 | > 32.5 | 0.142 | > 32.5 | 0.0978 | 0.366 | 0.0479 | – | 0.0693 | 0.164 | 0.862 | > 25.3 | 0.121 | > 32.5
7 | Cc1ccc(CCNC(=S)SCC(NC(=O)CCC(N)C(=O)O)C(=O)NCC(=O)O)cc1 (stereo unspecified) | – | 3.01 | – | 1.45 | – | 9.99 | – | 4.47 | – | 3.84 | – | 19.2 | – | 8.69 | – | 3.54 | – | 2.8 | – | 8.08
8 | O=C(NC(c1ccccc1)C(O)C(=O)OCc1ccc2c(c1)C(=O)c1ccccc1C2=O)c1ccccc1 (stereo unspecified) | – | > 100 | – | 63.6 | – | 34.5 | – | 37.9 | – | 47.9 | – | 15.3 | – | 69.4 | – | > 100 | – | 7.91 | – | 9.82
9 | CC1SC(c2cccc(Oc3ccccc3)c2)N(CCc2cccs2)C1=O (stereo unspecified) | 1.4 | 3 | 0.717 | 2.12 | 0.718 | 3.55 | 1.73 | 3.58 | 1.25 | 2.7 | 1.92 | 5.32 | 0.725 | 2.23 | 1.88 | 5.75 | 0.486 | 1.86 | 1.6 | 3.42
10 | COc1cc2c(c(OC)c1OC)-c1c(c3ccc([N+](=O)[O-])cc3c(=O)n1CCCN=[N+]=[N-])C2=O | 33.6 | > 100 | 0.251 | 5.71 | 15.2 | 43.6 | 23.2 | 96.9 | 30.4 | > 100 | 23.1 | 55.2 | 18.5 | > 100 | > 100 | > 100 | 21.5 | 80.2 | 15.4 | 38.1
11 | Oc1ccc(-c2nc(-c3ccc4oc5ccc(-c6[nH]c(-c7ccc(O)cc7)nc6-c6ccccc6)cc5c4c3)c(-c3ccccc3)[nH]2)cc1 | 2.95 | 10.7 | 2.95 | 8.02 | 5.2 | 33.7 | 9.07 | 68 | 3.39 | 27 | 17 | 42.4 | 12.2 | 45.4 | 3.12 | 9.69 | 2.19 | 6.53 | 7.62 | 42.3
12 | COc1ccc(C2CC(c3ccc(OC)c(OC)c3)=NN2C(=O)c2cc(OC)c(OC)c(OC)c2)cc1 (stereo unspecified) | 3.7 | > 100 | 0.56 | – | 3.46 | > 100 | > 91.3 | > 100 | 5.71 | > 100 | 1.76 | > 100 | 0.426 | – | 1.85 | 4.77 | 0.168 | 0.841 | 1.78 | > 100
13 | CCCCCCn1c(=N)n(CC(O)COc2cccc(C)c2)c2ccccc21 (stereo unspecified) | 1.82 | 4.04 | 1.78 | 3.82 | 2.89 | 11.5 | 1.92 | 3.66 | 3.21 | 13.8 | 3.38 | 9.32 | 1.78 | 3.78 | 2.04 | 3.65 | 2.2 | 8.02 | 2.14 | 3.88
14 | COc1cc2c(cc1Nc1nc(Nc3ccsc3C(N)=O)c3cc[nH]c3n1)N(C(=O)CN(C)C)CCC2 | 0.0726 | > 25 | 0.507 | 2.19 | 0.343 | 8.55 | 2.58 | 6.24 | 3.67 | 11.8 | 1.18 | 4.89 | 0.974 | 4.8 | 0.2 | 2.27 | < 0.0025 | 1.19 | 0.917 | 6.84
